The assay addresses human LPAR1 (Homo sapiens, UniProt Q92633). In words: LPAR1 intracellular calcium mobilization assay (antagonist mode). Background: Calcium assays in cells follow changes in intracellular calcium, usually with a dye or a luminescent sensor.

pEC50: −log10 of the molar value.

In patent US11548871B2, “Triazole carbamate pyridyl sulfonamides as LPA receptor antagonists and uses thereof” (Gilead Sciences, Inc., priority 2019, dated 2023) one finds EC50 data, which are given here for 20 molecules.

Broadly, the pEC50 is the negative decadic logarithm of the EC50, by convention in mol/L.

Sequence of human LPAR1 (Q92633 whole entry): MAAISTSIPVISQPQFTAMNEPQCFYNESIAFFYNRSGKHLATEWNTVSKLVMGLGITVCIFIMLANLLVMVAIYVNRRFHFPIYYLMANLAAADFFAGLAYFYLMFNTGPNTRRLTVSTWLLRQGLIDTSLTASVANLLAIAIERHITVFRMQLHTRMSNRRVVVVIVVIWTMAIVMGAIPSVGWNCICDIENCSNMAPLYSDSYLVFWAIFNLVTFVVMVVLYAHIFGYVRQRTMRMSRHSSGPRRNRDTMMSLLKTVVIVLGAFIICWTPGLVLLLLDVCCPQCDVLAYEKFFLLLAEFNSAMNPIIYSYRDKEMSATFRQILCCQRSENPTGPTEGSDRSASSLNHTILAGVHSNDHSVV

On to `Cc1nc(-c2nnn(C)c2NC(=O)OC(C)c2cnc(F)cc2Cl)ccc1NS(C)(=O)=O` (centres unmarked) [Compound 129, 1-(4-chloro-6-fluoropyridin-3-yl)ethyl (1-methyl-4-(6-methyl-5-(methylsulfonamido)pyridin-2-yl)-1H-1,2,3-triazol-5-yl)carbamate], for which the pEC50 is 6.57.

As for `Cn1nnc(-c2ccc(NS(=O)(=O)CC#N)cn2)c1NC(=O)O[C@@H](c1ccccc1)C(F)F` [Compound 13, (S)-2,2-difluoro-1-phenylethyl(4-(5-((cyanomethyl)sulfonamido)pyridin-2-yl)-1-methyl-1H-1,2,3-triazol-5-yl)carbamate], the pEC50 was 7.15.

Take `C[C@@H](OC(=O)Nc1c(-c2ccc(NS(C)(=O)=O)cn2)nnn1C)c1cnsc1Cl` [Compound 118, (R)-1-(5-chloroisothiazol-4-yl)ethyl (1-methyl-4-(5-(methylsulfonamido)pyridin-2-yl)-1H-1,2,3-triazol-5-yl)carbamate]: the pEC50 is 7.24.

For the molecule `Cc1nc(-c2nnn(C)c2NC(=O)O[C@@H](c2ccccc2)C(F)(F)F)ccc1NS(C)(=O)=O` [Compound 94, (S)-2,2,2-trifluoro-1-phenylethyl(1-methyl-4-(6-methyl-5-(methylsulfonamido)pyridin-2-yl)-1H-1,2,3-triazol-5-yl)carbamate], the pEC50 is 7.41.

In the case of `Cc1nc(-c2nnn(C)c2NC(=O)O[C@H](C)c2cc(F)ccc2Cl)ccc1NS(C)(=O)=O` [Compound 60, (R)-1-(2-chloro-5-fluorophenyl)ethyl (1-methyl-4-(6-methyl-5-(methylsulfonamido)pyridin-2-yl)-1H-1,2,3-triazol-5-yl)carbamate], the pEC50 was 7.50.

Take `Cc1nc(-c2nnn(C)c2NC(=O)O[C@H](C)c2ccccc2Cl)ccc1NS(C)(=O)=O` [Compound 11, (R)-1-(2-chlorophenyl)ethyl (1-methyl-4-(6-methyl-5-(methylsulfonamido)pyridin-2-yl)-1H-1,2,3-triazol-5-yl)carbamate]: the pEC50 is 7.62.

Take `Cc1nc(-c2nnn(C)c2NC(=O)O[C@H](C)c2cc(Cl)ccc2Cl)ccc1NS(C)(=O)=O` [Compound 61, (R)-1-(2,5-dichlorophenyl)ethyl (1-methyl-4-(6-methyl-5-(methylsulfonamido)pyridin-2-yl)-1H-1,2,3-triazol-5-yl)carbamate]: the pEC50 was 7.52.

On to `Cc1nc(-c2nnn(C)c2NC(=O)OC(C)c2nccnc2Cl)ccc1NS(C)(=O)=O` (centres unmarked) [Compound 76, 1-(3-chloropyrazin-2-yl)ethyl (1-methyl-4-(6-methyl-5-(methylsulfonamido)pyridin-2-yl)-1H-1,2,3-triazol-5-yl)carbamate], for which the pEC50 was 6.03.

On to `Cc1nc(-c2nnn(C)c2NC(=O)O[C@H](CF)c2cccc(Cl)c2)ccc1NS(C)(=O)=O` [Compound 25, (S)-1-(3-chlorophenyl)-2-fluoroethyl (1-methyl-4-(6-methyl-5-(methylsulfonamido)pyridin-2-yl)-1H-1,2,3-triazol-5-yl)carbamate], for which the pEC50 was 7.73.

As to `Cc1nc(-c2nnn(C)c2NC(=O)O[C@@H](c2ccccc2F)C(F)F)ccc1NS(C)(=O)=O` [Compound 54, (S)-2,2-difluoro-1-(2-fluorophenyl)ethyl (1-methyl-4-(6-methyl-5-(methylsulfonamido)pyridin-2-yl)-1H-1,2,3-triazol-5-yl)carbamate], the pEC50 was 7.04.

Consider `C[C@@H](OC(=O)Nc1c(-c2ccc(NS(C)(=O)=O)c(F)n2)nnn1C)c1ccccc1Cl` [Compound 5, (R)-1-(2-chlorophenyl)ethyl (4-(6-fluoro-5-(methylsulfonamido)pyridin-2-yl)-1-methyl-1H-1,2,3-triazol-5-yl)carbamate], for which the pEC50 was 7.46.

For the molecule `Cc1nc(-c2nnn(CC#N)c2NC(=O)O[C@H](C)c2ccccc2)ccc1NS(C)(=O)=O` [Compound 99, (R)-1-phenylethyl(1-(cyanomethyl)-4-(6-methyl-5-(methylsulfonamido)pyridin-2-yl)-1H-1,2,3-triazol-5-yl)carbamate], the pEC50 was 7.35.

In the case of `CCCCC[C@@H](C)OC(=O)Nc1c(-c2ccc(NS(C)(=O)=O)c(C)n2)nnn1C` [Compound 71, (R)-heptan-2-yl (1-methyl-4-(6-methyl-5-(methylsulfonamido)pyridin-2-yl)-1H-1,2,3-triazol-5-yl)carbamate], the pEC50 was 5.76.

As for `CCS(=O)(=O)Nc1ccc(-c2nnn(C)c2NC(=O)O[C@H](C)c2cccc(F)c2)nc1C` [Compound 101, (R)-1-(3-fluorophenyl) ethyl(4-(5-(ethyl-sulfonamido)-6-methyl-pyridin-2-yl)-1-methyl-1H-1,2,3-triazol-5-yl)carbamate], the pEC50 is 6.58.

For `Cc1nc(-c2nnn(C)c2NC(=O)OC2c3ccccc3CC2F)ccc1NS(C)(=O)=O` (centres unmarked) [Compound 73, 2-fluoro-2,3-dihydro-1H-inden-1-yl (1-methyl-4-(6-methyl-5-(methylsulfonamido)pyridin-2-yl)-1H-1,2,3-triazol-5-yl)carbamate], the pEC50 was 5.49.

`C[C@@H](OC(=O)Nc1c(-c2ccc(NS(C)(=O)=O)cn2)nnn1C)c1cccc(F)c1` [Compound 95, (R)-1-(3-fluorophenyl)ethyl(1-methyl-4-(5-(methylsulfonamido)pyridin-2-yl)-1H-1,2,3-triazol-5-yl)carbamate]: the pEC50 was 7.55.

With `Cc1nc(-c2nnn(C)c2NC(=O)O[C@H](C)c2cccnc2)ccc1NS(C)(=O)=O` [Compound 67, (R)-1-(pyridin-3-yl)ethyl (1-methyl-4-(6-methyl-5-(methylsulfonamido)pyridin-2-yl)-1H-1,2,3-triazol-5-yl)carbamate], the pEC50 was 5.79.

In the case of `Cc1nc(-c2nnn(C)c2NC(=O)O[C@H](C)c2cccc(F)c2)ccc1NS(=O)(=O)C1COC1` [Compound 109, (R)-1-(3-fluoro-phenyl)ethyl (1-methyl-4-(6-methyl-5-(oxetane-3-sulfonamido)pyridin-2-yl)-1H-1,2,3-triazol-5-yl)carbamate], the pEC50 was 6.15.

With `C[C@@H](OC(=O)Nc1c(-c2ccc(NS(=O)(=O)C3CNC3)cn2)nnn1C)c1cccnc1Cl` [Compound 161, (R)-1-(2-chloropyridin-3-yl)ethyl (4-(5-(azetidine-3-sulfonamido)pyridin-2-yl)-1-methyl-1H-1,2,3-triazol-5-yl)carbamate], the negative-log EC50 (pEC50) was 5.28.

`C[C@@H](OC(=O)Nc1c(-c2ccc(NS(C)(=O)=O)cn2)nnn1C)c1cccnc1Br` [Compound 116, (R)-1-(2-bromopyridin-3-yl)ethyl (1-methyl-4-(5-(methylsulfonamido)pyridin-2-yl)-1H-1,2,3-triazol-5-yl)carbamate]: the pEC50 was 6.89.
